ChEMBL document CHEMBL3797052 (Eur J Med Chem, 2016)

What was measured:
Format in all cases: functional
[1] = system: EKVX; test: Antiproliferative activity against human EKVX cells assessed as cell growth at 10^-6 M after 48 hrs by sulforhodamine B assay; conditions: read-out: Activity
[2] = Antiproliferative activity against human RXF393 cells assessed as cell growth at 10^-7 M after 48 hrs by sulforhodamine B assay; conditions: RXF 393, 48 h, read-out: Activity
[3] = Antiproliferative activity against human UACC257 cells assessed as cell growth at 10^-7 M after 48 hrs by sulforhodamine B assay; conditions: UACC-257, 48 h, read-out: Activity
[4] = system: EKVX; test: Antiproliferative activity against human EKVX cells assessed as cell growth at 10^-8 M after 48 hrs by sulforhodamine B assay; conditions: read-out: Activity
[5] = Antiproliferative activity against human RPMI8226 cells assessed as cell growth at 10^-8 M after 48 hrs by sulforhodamine B assay; conditions: RPMI-8226, 48 h, read-out: Activity
[6] = system: MDA-MB-435; test: Antiproliferative activity against human MDA-MB-435 cells assessed as cell growth at 10^-4 M after 48 hrs by sulforhodamine B assay; conditions: MDA-MB-435, 48 h, read-out: Activity
[7] = system: MDA-MB-435; test: Antiproliferative activity against human MDA-MB-435 cells assessed as cell growth at 10^-6 M after 48 hrs by sulforhodamine B assay; conditions: MDA-MB-435, 48 h, read-out: Activity
[8] = Antiproliferative activity against human COLO205 cells assessed as growth inhibition after 48 hrs by sulforhodamine B assay; conditions: COLO 205, 48 h; for CC50: read-out: LC50 (the source's name)
[9] = system: KM12; test: Antiproliferative activity against human KM12 cells assessed as cell growth at 10^-4 M after 48 hrs by sulforhodamine B assay; conditions: KM12, 48 h, read-out: Activity
[10] = Antiproliferative activity against human SNB19 cells assessed as cell growth at 10^-4 M after 48 hrs by sulforhodamine B assay; conditions: SNB-19, 48 h, read-out: Activity
[11] = system: SR; test: Antiproliferative activity against human SR cells assessed as cell growth at 10^-8 M after 48 hrs by sulforhodamine B assay; conditions: read-out: Activity
[12] = Antiproliferative activity against human BT549 cells assessed as cell growth at 10^-4 M after 48 hrs by sulforhodamine B assay; conditions: BT-549, 48 h, read-out: Activity
[13] = system: EKVX; test: Antiproliferative activity against human EKVX cells assessed as growth inhibition after 48 hrs by sulforhodamine B assay; conditions: for CC50: read-out: LC50 (the source's name)
[14] = system: HT-29; test: Antiproliferative activity against human HT-29 cells assessed as cell growth at 10^-8 M after 48 hrs by sulforhodamine B assay; conditions: HT-29, 48 h, read-out: Activity
[15] = system: HT-29; test: Antiproliferative activity against human HT-29 cells assessed as growth inhibition after 48 hrs by sulforhodamine B assay; conditions: HT-29, 48 h
[16] = Antiproliferative activity against human NCI-ADR-RES cells assessed as cell growth at 10^-7 M after 48 hrs by sulforhodamine B assay; conditions: read-out: Activity
[17] = Antiproliferative activity against human RPMI8226 cells assessed as cell growth at 10^-6 M after 48 hrs by sulforhodamine B assay; conditions: RPMI-8226, 48 h, read-out: Activity
[18] = system: T47D; test: Antiproliferative activity against human T47D cells assessed as cell growth at 10^-4 M after 48 hrs by sulforhodamine B assay; conditions: read-out: Activity
[19] = Antiproliferative activity against human HCC2998 cells assessed as growth inhibition after 48 hrs by sulforhodamine B assay; conditions: HCC 2998, 48 h; for CC50: read-out: LC50 (the source's name)
[20] = Antiproliferative activity against human SKOV3 cells assessed as cell growth at 10^-7 M after 48 hrs by sulforhodamine B assay; conditions: SK-OV-3, 48 h, read-out: Activity
[21] = Antiproliferative activity against human BT549 cells assessed as cell growth at 10^-6 M after 48 hrs by sulforhodamine B assay; conditions: BT-549, 48 h, read-out: Activity
[22] = system: U-251; test: Antiproliferative activity against human U251 cells assessed as cell growth at 10^-4 M after 48 hrs by sulforhodamine B assay; conditions: U-251, 48 h, read-out: Activity
[23] = Antiproliferative activity against human Hs 578T cells assessed as cell growth at 10^-8 M after 48 hrs by sulforhodamine B assay; conditions: read-out: Activity
[24] = system: A498; test: Antiproliferative activity against human A498 cells assessed as cell growth at 10^-7 M after 48 hrs by sulforhodamine B assay; conditions: A498, 48 h, read-out: Activity
[25] = system: K562; test: Antiproliferative activity against human K562 cells assessed as cell growth at 10^-4 M after 48 hrs by sulforhodamine B assay; conditions: K562, 48 h, read-out: Activity
[26] = Antiproliferative activity against human SF295 cells assessed as growth inhibition after 48 hrs by sulforhodamine B assay; conditions: SF-295, 48 h; for CC50: read-out: LC50 (the source's name)
[27] = system: MCF7; test: Antiproliferative activity against human MCF7 cells assessed as cell growth at 10^-6 M after 48 hrs by sulforhodamine B assay; conditions: MCF7, 48 h, read-out: Activity
[28] = system: MDA-MB-468; test: Antiproliferative activity against human MDA-MB-468 cells assessed as cell growth at 10^-4 M after 48 hrs by sulforhodamine B assay; conditions: MDA-MB-468, 48 h, read-out: Activity
[29] = system: 786-0; test: Antiproliferative activity against human 786-0 cells assessed as growth inhibition after 48 hrs by sulforhodamine B assay; conditions: 786-0, 48 h
[30] = system: A498; test: Antiproliferative activity against human A498 cells assessed as growth inhibition after 48 hrs by sulforhodamine B assay; conditions: A498, 48 h
[31] = system: NCI-H322M; test: Antiproliferative activity against human NCI-H322M cells assessed as cell growth at 10^-7 M after 48 hrs by sulforhodamine B assay; conditions: read-out: Activity
[32] = system: K562; test: Antiproliferative activity against human K562 cells assessed as cell growth at 10^-8 M after 48 hrs by sulforhodamine B assay; conditions: K562, 48 h, read-out: Activity
[33] = Antiproliferative activity against human UO31 cells assessed as cell growth at 10^-4 M after 48 hrs by sulforhodamine B assay; conditions: UO-31, 48 h, read-out: Activity
[34] = Antiproliferative activity against human SNB75 cells assessed as cell growth at 10^-8 M after 48 hrs by sulforhodamine B assay; conditions: SNB-75, 48 h, read-out: Activity
[35] = Antiproliferative activity against human SF268 cells assessed as cell growth at 10^-7 M after 48 hrs by sulforhodamine B assay; conditions: SF-268, 48 h, read-out: Activity
[36] = system: NCI-H522; test: Antiproliferative activity against human NCI-H522 cells assessed as cell growth at 10^-8 M after 48 hrs by sulforhodamine B assay; conditions: NCI-H522, 48 h, read-out: Activity
[37] = system: NCI-H23; test: Antiproliferative activity against human NCI-H23 cells assessed as cell growth at 10^-8 M after 48 hrs by sulforhodamine B assay; conditions: NCI-H23, 48 h, read-out: Activity

SMILES: CNC(=O)c1cc(Oc2ccc3nc(NC(=O)Nc4ccc(Cl)c(C(F)(F)F)c4)sc3c2)ccn1
- growth at 1 µM [1]: 82%
- growth at 0.1 µM [2]: 90%
- growth at 0.1 µM [3]: 98%
- growth at 0.01 µM [4]: 97%
- growth at 0.01 µM [5]: 100%
- growth at 100 µM [6]: 40%
- growth at 1 µM [7]: 83%
- CC50 [8]: > 100 µM
- growth at 100 µM [9]: 45%
- growth at 100 µM [10]: -49%
- growth at 0.01 µM [11]: 110%
- growth at 100 µM [12]: -6%
- GI50 [13]: 1.75 µM
- TGI [13]: 4.18 µM
- growth at 0.01 µM [14]: 99%
- LC50 [15]: > 100 µM
- TGI [15]: > 100 µM
- growth at 0.1 µM [16]: 113%
- growth at 1 µM [17]: 82%
- growth at 100 µM [18]: -16%
- TGI [19]: > 100 µM
- CC50 [19]: > 100 µM
- growth at 0.1 µM [20]: 103%
- growth at 1 µM [21]: 87%
- growth at 100 µM [22]: -34%
- growth at 0.01 µM [23]: 92%
- growth at 0.1 µM [24]: 97%
- growth at 100 µM [25]: 59%
- GI50 [26]: 1.79 µM
- TGI [26]: 3.71 µM
- CC50 [26]: 7.66 µM
- growth at 1 µM [27]: 66%
- growth at 100 µM [28]: -43%
- GI50 [29]: 1.79 µM
- LC50 [29]: 6.48 µM
- TGI [29]: 3.4 µM
- GI50 [30]: 2.49 µM
- LC50 (concentration killing 50% of cells) [30]: > 100 µM
- TGI [30]: 12.2 µM
- growth at 0.1 µM [31]: 103%
- growth at 0.01 µM [32]: 107%
- growth at 100 µM [33]: 28%
- growth at 0.01 µM [34]: 79%
- growth at 0.1 µM [35]: 101%
- growth at 0.01 µM [36]: 98%
- growth at 0.01 µM [37]: 100%

SMILES: CNC(=O)c1cc(Oc2ccc3nc(NC(=O)Nc4ccc(Cl)c(Cl)c4)sc3c2)ccn1
- growth at 1 µM [1]: 86%
- growth at 0.1 µM [2]: 101%
- growth at 0.1 µM [3]: 92%
- growth at 0.01 µM [4]: 89%
- growth at 0.01 µM [5]: 96%
- growth at 100 µM [6]: -30%
- growth at 1 µM [7]: 93%
- GI50 [8]: 4.25 µM
- TGI [8]: > 100 µM
- CC50 [8]: > 100 µM
- growth at 100 µM [9]: 6%
- growth at 100 µM [10]: -74%
- growth at 0.01 µM [11]: 108%
- growth at 100 µM [12]: 6%
- GI50 [13]: 3.3 µM
- TGI [13]: > 100 µM
- CC50 [13]: > 100 µM
- growth at 0.01 µM [14]: 107%
- GI50 [15]: 2.16 µM
- TGI [15]: 4.31 µM
- growth at 0.1 µM [16]: 98%
- growth at 1 µM [17]: 103%
- growth at 100 µM [18]: -21%
- GI50 [19]: 5.04 µM
- TGI [19]: > 100 µM
- CC50 [19]: > 100 µM
- growth at 0.1 µM [20]: 115%
- growth at 1 µM [21]: 102%
- growth at 100 µM [22]: -90%
- growth at 0.01 µM [23]: 100%
- growth at 0.1 µM [24]: 110%
- growth at 100 µM [25]: 53%
- GI50 [26]: 1.53 µM
- TGI [26]: 3.13 µM
- CC50 [26]: 6.41 µM
- growth at 1 µM [27]: 84%
- growth at 100 µM [28]: -44%
- GI50 [29]: 2.26 µM
- LC50 [29]: 21.5 µM
- TGI [29]: 5.11 µM
- GI50 [30]: 2.93 µM
- LC50 (concentration killing 50% of cells) [30]: > 100 µM
- TGI [30]: 6.64 µM
- growth at 0.1 µM [31]: 87%
- growth at 0.01 µM [32]: 99%
- growth at 100 µM [33]: -72%
- growth at 0.01 µM [34]: 76%
- growth at 0.1 µM [35]: 99%
- growth at 0.01 µM [36]: 98%
- growth at 0.01 µM [37]: 95%

SMILES: CNC(=O)c1cc(Oc2ccc3nc(NC(=O)c4cc(C(F)(F)F)cc(C(F)(F)F)c4)sc3c2)ccn1
- growth at 1 µM [1]: 90%
- growth at 0.1 µM [2]: 94%
- growth at 0.1 µM [3]: 95%
- growth at 0.01 µM [4]: 94%
- growth at 0.01 µM [5]: 97%
- growth at 100 µM [6]: -15%
- growth at 1 µM [7]: 96%
- GI50 [8]: 2.82 µM
- TGI [8]: 8.21 µM
- CC50 [8]: 32.8 µM
- growth at 100 µM [9]: -52%
- growth at 100 µM [10]: -28%
- growth at 0.01 µM [11]: 91%
- growth at 100 µM [12]: -48%
- GI50 [13]: 3.43 µM
- TGI [13]: 23.3 µM
- CC50 [13]: > 100 µM
- growth at 0.01 µM [14]: 108%
- GI50 [15]: 3.86 µM
- LC50 [15]: 96.9 µM
- TGI [15]: 16.8 µM
- growth at 0.1 µM [16]: 103%
- growth at 1 µM [17]: 75%
- growth at 100 µM [18]: -40%
- GI50 [19]: 6.63 µM
- TGI [19]: 24.7 µM
- CC50 [19]: 79.4 µM
- growth at 0.1 µM [20]: 91%
- growth at 1 µM [21]: 92%
- growth at 100 µM [22]: -73%
- growth at 0.01 µM [23]: 94%
- growth at 0.1 µM [24]: 67%
- growth at 100 µM [25]: 4%
- GI50 [26]: 2.56 µM
- TGI [26]: 10.5 µM
- CC50 [26]: 49.6 µM
- growth at 1 µM [27]: 87%
- growth at 100 µM [28]: -30%
- GI50 [29]: 2.55 µM
- LC50 [29]: 45.2 µM
- TGI [29]: 8.07 µM
- GI50 [30]: 1.45 µM
- LC50 (concentration killing 50% of cells) [30]: 30.9 µM
- TGI [30]: 4.51 µM
- growth at 0.1 µM [31]: 93%
- growth at 0.01 µM [32]: 103%
- growth at 100 µM [33]: -51%
- growth at 0.01 µM [34]: 82%
- growth at 0.1 µM [35]: 97%
- growth at 0.01 µM [36]: 90%
- growth at 0.01 µM [37]: 96%
